Measured values as given in patent US10617680B2 (CELGENE QUANTICEL RESEARCH, INC., priority 2017, dated 2020).

Target: CBP (Homo sapiens (Human), UniProt Q92793)
Experiment: In vitro CBP inhibition (AlphaScreen, biotinylated H4-tetraacetyl peptide)
Type: binding
Settings: AlphaScreen, Table 29; read-out: CBP IC50
Procedure, shortened: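 His-tagged CBP expressed in E. coli (50 nM final) incubated with biotinylated H4K5/8/12/16(Ac) peptide (20 nM final) in 50 mM HEPES pH 7.3, 10 mM NaCl, 0.25 mM TCEP, 0.1% BSA, 0.005% Brij-35, 0.4% DMSO, 20 min at room temp.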

Sequence of CBP (Q92793 1081-1197): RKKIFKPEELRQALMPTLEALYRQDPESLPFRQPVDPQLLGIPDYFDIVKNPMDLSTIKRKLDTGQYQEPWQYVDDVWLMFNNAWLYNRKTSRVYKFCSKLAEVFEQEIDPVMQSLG

SMILES | IC50
Cn1cc(-c2cnn(-c3ccccc3-c3nnn[nH]3)c2)c(C2CC2)cc1=O [Example 301, 4-Cyclopropyl-1-methyl-5-{1-[2-(1H-tetrazol-5-yl)-phenyl]-1H-pyrazol-4-yl}-1H-pyridin-2-one] | < 500 nM
CCS(=O)(=O)NC(=O)c1ccccc1-n1cc(-c2cn(C)c(=O)cc2C2CC2)cn1 [Example 303, Ethanesulfonic acid 2-[4-(4-cyclopropyl-1-methyl-6-oxo-1,6-dihydro-pyridin-3-yl)-pyrazol-1-yl]-benzoylamide] | < 500 nM
CN(C)S(=O)(=O)NC(=O)c1ccccc1-n1cc(-c2cn(C)c(=O)cc2C2CC2)cn1 [Example 304, N-[(dimethylamino)sulfonyl]-{2-[4-(4-cyclopropyl-1-methyl-6-oxo(3-hydropyridyl))pyrazolyl]phenyl}carboxamide] | < 500 nM
COc1ccc(C#N)cc1-n1cc(-c2cn(C)c(=O)cc2-c2ccn(C)c(=O)c2)cn1 [Example 305, 3-(4-(1,1′-dimethyl-2′,6-dioxo-1,1′,2′,6-tetrahydro-[4,4′-bipyridin]-3-yl)-1H-pyrazol-1-yl)-4-methoxybenzonitrile] | < 500 nM
COc1ccc(-c2cc(=O)n(C)cc2-c2cnn(-c3cc(C#N)ccc3OC)c2)cn1 [Example 306, 4-Methoxy-3-[4-(6-methoxy-1′-methyl-6′-oxo-1′,6′-dihydro-[3,4′]bipyridinyl-3′-yl)-pyrazol-1-yl]-benzonitrile] | < 500 nM
CNc1ncc(-c2cc(=O)n(C)cc2-c2cnn(C(C)c3ccccc3)c2)cn1 (stereo not drawn) [Example 309, 1-methyl-4-(2-(methylamino)pyrimidin-5-yl)-5-(1-(1-phenylethyl)-1H-pyrazol-4-yl)pyridin-2(1H)-one] | < 500 nM
CC(c1ccccc1)n1cc(-c2cn(C)c(=O)cc2-c2ccn(C)c(=O)c2)cn1 (stereo not drawn) [Example 310, 1,1′-dimethyl-5-(1-(1-phenylethyl)-1H-pyrazol-4-yl)-[4,4′-bipyridine]-2,2′(1H,1′H)-dione] | < 500 nM
CCNc1ncc(-c2cc(=O)n(C)cc2-c2cnn(C(C)c3ccccc3)c2)cn1 (stereo not drawn) [Example 311] | < 500 nM
CC(c1ccccc1)n1cc(-c2cn(C)c(=O)cc2-c2ccc(OCCCN(C)C)nc2)cn1 (stereo not drawn) [Example 313, 6-(3-(dimethylamino)propoxy)-1′-methyl-5′-(1-(1-phenylethyl)-1H-pyrazol-4-yl)-[3,4′-bipyridin]-2′(1′H)-one] | < 500 nM
COc1ncc(-c2cc(=O)n(C)cc2-c2cnn(-c3ccccc3Cl)c2)cc1C [Example 316, 5′-(1-(2-chlorophenyl)-1H-pyrazol-4-yl)-6-methoxy-1′,5-dimethyl-[3,4′-bipyridin]-2′(1′H)-one] | < 500 nM
COc1ccc(-c2cc(=O)n(C)cc2-c2cnn(-c3ccccc3F)c2)cn1 [Example 319] | < 500 nM
COc1ncc(-c2cc(=O)n(C)cc2-c2cnn(-c3ccccc3F)c2)cn1 [Example 320, 5-(1-(2-fluorophenyl)-1H-pyrazol-4-yl)-4-(2-methoxypyrimidin-5-yl)-1-methylpyridin-2(1H)-one] | < 500 nM
COCCNc1ncc(-c2cc(=O)n(C)cc2-c2cnn(-c3ccccc3C#N)c2)cn1 [Example 324, 2-(4-(4-(2-((2-methoxyethyl)amino)pyrimidin-5-yl)-1-methyl-6-oxo-1,6-dihydropyridin-3-yl)-1H-pyrazol-1-yl)benzonitrile] | < 500 nM
CCNc1ncc(-c2cc(=O)n(C)cc2-c2cnn(-c3cccc(Cl)c3C#N)c2)cn1 [Example 325, 2-chloro-6-(4-(4-(2-(ethylamino)pyrimidin-5-yl)-1-methyl-6-oxo-1,6-dihydropyridin-3-yl)-1H-pyrazol-1-yl)benzonitrile] | < 500 nM
COCCNc1ncc(-c2cc(=O)n(C)cc2-c2cnn(-c3cccc(Cl)c3C#N)c2)cn1 [Example 326, 2-chloro-6-(4-(4-(2-((2-methoxyethyl)amino)pyrimidin-5-yl)-1-methyl-6-oxo-1,6-dihydropyridin-3-yl)-1H-pyrazol-1-yl)benzonitrile] | < 500 nM

Results, then the molecule that gave them:

IC50 | SMILES
< 500 nM | Cn1cc(-c2cc(=O)n(C)cc2-c2cnn(-c3ccccc3-c3nnn[nH]3)c2)cn1 [Example 300, 1-Methyl-4-(1-methyl-1H-pyrazol-4-yl)-5-{1-[2-(1H-tetrazol-5-yl)-phenyl]-1H-pyrazol-4-yl}-1H-pyridin-2-one]
< 500 nM | Cn1cc(-c2cnn(-c3ccccc3C(=O)NS(C)(=O)=O)c2)c(C2CC2)cc1=O [Example 302, N-{2-[4-(4-Cyclopropyl-1-methyl-6-oxo-1,6-dihydro-pyridin-3-yl)-pyrazol-1-yl]-benzoyl}-methanesulfonamide]
< 500 nM | COc1ccc(C#N)cc1-n1cc(-c2cn(C)c(=O)cc2-c2ccc(Cl)cc2)cn1 [Example 307, 3-{4-[4-(4-Chloro-phenyl)-1-methyl-6-oxo-1,6-dihydro-pyridin-3-yl]-pyrazol-1-yl}-4-methoxy-benzonitrile]
< 500 nM | COc1ccc(-c2cc(=O)n(C)cc2-c2cnn(C(C)c3ccccc3)c2)cn1 (stereo not drawn) [Example 308, 6-methoxy-1′-methyl-5′-(1-(1-phenylethyl)-1H-pyrazol-4-yl)-[3,4′-bipyridin]-2′(1′H)-one]
< 500 nM | COCCNc1ncc(-c2cc(=O)n(C)cc2-c2cnn(C(C)c3ccccc3)c2)cn1 (stereo not drawn) [Example 312, 4-(2-((2-methoxyethyl)amino)pyrimidin-5-yl)-1-methyl-5-(1-(1-phenylethyl)-1H-pyrazol-4-yl)pyridin-2(1H)-one]
< 500 nM | Cn1ccc(-c2cc(=O)n(C)cc2-c2cnn(-c3ccccc3Cl)c2)cc1=O [Example 314, 5-(1-(2-chlorophenyl)-1H-pyrazol-4-yl)-1,1′-dimethyl-[4,4′-bipyridine]-2,2′(1H,1′H)-dione]
< 500 nM | COc1ncc(-c2cc(=O)n(C)cc2-c2cnn(-c3ccccc3Cl)c2)cn1 [Example 315, 5-(1-(2-chlorophenyl)-1H-pyrazol-4-yl)-4-(2-methoxypyrimidin-5-yl)-1-methylpyridin-2(1H)-one]
< 500 nM | COc1cc(-c2cc(=O)n(C)cc2-c2cnn(-c3ccccc3Cl)c2)ccn1 [Example 317, 5-(1-(2-chlorophenyl)-1H-pyrazol-4-yl)-2′-methoxy-1-methyl-[4,4′-bipyridin]-2(1H)-one]
< 500 nM | Cn1ccc(-c2cc(=O)n(C)cc2-c2cnn(-c3ccccc3F)c2)cc1=O [Example 318, 5-(1-(2-fluorophenyl)-1H-pyrazol-4-yl)-1,1′-dimethyl-[4,4′-bipyridine]-2,2′(1H,1′H)-dione]
< 500 nM | Cn1cc(-c2cnn(C3CCCCC3O)c2)c(-c2ccccc2)cc1=O (stereo not drawn) [Example 321, 5-(1-(2-hydroxycyclohexyl)-1H-pyrazol-4-yl)-1-methyl-4-phenylpyridin-2(1H)-one]
< 500 nM | Cn1cc(-c2cnn(-c3cccc(Cl)c3C#N)c2)c(-c2cnc(NC3CC3)nc2)cc1=O [Example 322, 2-chloro-6-[4-[4-[2-(cyclopropylamino)pyrimidin-5-yl]-1-methyl-6-oxo-3-pyridyl]pyrazol-1-yl]benzonitrile]
< 500 nM | Cn1cc(-c2cnn(-c3cccc(Cl)c3C#N)c2)c(-c2cnc(NCC3CC3)nc2)cc1=O [Example 327, 2-chloro-6-(4-(4-(2-((cyclopropylmethyl)amino)pyrimidin-5-yl)-1-methyl-6-oxo-1,6-dihydropyridin-3-yl)-1H-pyrazol-1-yl)benzonitrile]
